What was measured:
Format in all cases: functional
HOP-62 [1] = test: Growth inhibition of human HOP62 cells assessed as cell growth at 3X10'-7 M after 48 hrs by sulforhodamine B assay; settings: HOP-62, 48 h, read-out: Activity
K562 [2] = test: Growth inhibition of human K562 cells assessed as cell growth at 3X10'-7 M after 48 hrs by sulforhodamine B assay; settings: K562, 48 h, read-out: Activity
MDA-MB-231 = test: Growth inhibition of human MDA-MB-231 cells assessed as cell growth at 3X10'-8 M after 48 hrs by sulforhodamine B assay; settings: MDA-MB-231, 48 h, read-out: Activity
OVCAR-8 = test: Growth inhibition of human OVCAR8 cells assessed as cell growth at 3X10'-8 M after 48 hrs by sulforhodamine B assay; settings: OVCAR-8, 48 h, read-out: Activity
M14 = test: Growth inhibition of human M14 cells assessed as cell growth at 3X10'-8 M after 48 hrs by sulforhodamine B assay; settings: M14, 48 h, read-out: Activity
NCI-H23 [3] = test: Growth inhibition of human NCI-H23 cells assessed as cell growth at 3X10'-8 M after 48 hrs by sulforhodamine B assay; settings: NCI-H23, 48 h, read-out: Activity
HOP-62 [4] = test: Growth inhibition of human HOP62 cells assessed as cell growth at 3X10'-8 M after 48 hrs by sulforhodamine B assay; settings: HOP-62, 48 h, read-out: Activity
MOLT-4 = test: Growth inhibition of human MOLT4 cells assessed as cell growth at 3X10'-8 M after 48 hrs by sulforhodamine B assay; settings: MOLT-4, 48 h, read-out: Activity
HL-60(TB) = test: Growth inhibition of human HL-60(TB) cells assessed as cell growth at 3X10'-8 M after 48 hrs by sulforhodamine B assay; settings: HL-60, 48 h, read-out: Activity
RXF 393 [5] = test: Growth inhibition of human RXF393 cells assessed as cell growth at 3X10'-5 M after 48 hrs by sulforhodamine B assay; settings: RXF 393, 48 h, read-out: Activity
OVCAR-5 = test: Growth inhibition of human OVCAR5 cells assessed as cell growth at 3X10'-5 M after 48 hrs by sulforhodamine B assay; settings: OVCAR-5, 48 h, read-out: Activity
RXF 393 [6] = test: Growth inhibition of human RXF393 cells assessed as cell growth at 3X10'-9 M after 48 hrs by sulforhodamine B assay; settings: RXF 393, 48 h, read-out: Activity
OVCAR-3 = test: Growth inhibition of human OVCAR3 cells assessed as cell growth at 3X10'-9 M after 48 hrs by sulforhodamine B assay; settings: OVCAR-3, 48 h, read-out: Activity
OVCAR-4 = test: Growth inhibition of human OVCAR4 cells assessed as cell growth at 3X10'-5 M after 48 hrs by sulforhodamine B assay; settings: OVCAR-4, 48 h, read-out: Activity
SK-MEL-28 = test: Growth inhibition of human SK-MEL-28 cells assessed as cell growth at 3X10'-5 M after 48 hrs by sulforhodamine B assay; settings: SK-MEL-28, 48 h, read-out: Activity
LOX IMVI = test: Growth inhibition of human LOXIMVI cells assessed as cell growth at 3X10'-5 M after 48 hrs by sulforhodamine B assay; settings: read-out: Activity
SNB-19 = test: Growth inhibition of human SNB19 cells assessed as cell growth at 3X10'-5 M after 48 hrs by sulforhodamine B assay; settings: SNB-19, 48 h, read-out: Activity
NCI-H23 [7] = test: Growth inhibition of human NCI-H23 cells assessed as cell growth at 3X10'-5 M after 48 hrs by sulforhodamine B assay; settings: NCI-H23, 48 h, read-out: Activity
[8] = Growth inhibition of human Hs 578T cells assessed as cell growth at 3X10'-6 M after 48 hrs by sulforhodamine B assay; settings: read-out: Activity
UACC-62 [9] = test: Growth inhibition of human UACC62 cells assessed as cell growth at 3X10'-9 M after 48 hrs by sulforhodamine B assay; settings: UACC-62, 48 h, read-out: Activity
SF-539 = test: Growth inhibition of human SF539 cells assessed as cell growth at 3X10'-9 M after 48 hrs by sulforhodamine B assay; settings: SF-539, 48 h, read-out: Activity
SF-268 = test: Growth inhibition of human SF268 cells assessed as cell growth at 3X10'-9 M after 48 hrs by sulforhodamine B assay; settings: SF-268, 48 h, read-out: Activity
HCT-116 = test: Growth inhibition of human HCT116 cells assessed as cell growth at 3X10'-9 M after 48 hrs by sulforhodamine B assay; settings: HCT-116, 48 h, read-out: Activity
786-0 = test: Growth inhibition of human 786-0 cells assessed as cell growth at 3X10'-6 M after 48 hrs by sulforhodamine B assay; settings: 786-0, 48 h, read-out: Activity
UACC-62 [10] = test: Growth inhibition of human UACC62 cells assessed as cell growth at 3X10'-6 M after 48 hrs by sulforhodamine B assay; settings: UACC-62, 48 h, read-out: Activity
K562 [11] = test: Growth inhibition of human K562 cells assessed as cell growth at 3X10'-6 M after 48 hrs by sulforhodamine B assay; settings: K562, 48 h, read-out: Activity
[12] = Growth inhibition of human Hs 578T cells assessed as cell growth at 3X10'-7 M after 48 hrs by sulforhodamine B assay; settings: read-out: Activity
MCF7 = test: Growth inhibition of human MCF7 cells assessed as cell growth at 3X10'-7 M after 48 hrs by sulforhodamine B assay; settings: MCF7, 48 h, read-out: Activity
UO-31 = test: Growth inhibition of human UO31 cells assessed as cell growth at 3X10'-7 M after 48 hrs by sulforhodamine B assay; settings: UO-31, 48 h, read-out: Activity

| Compound | growth at 0.3 µM (HOP-62 [1]) | growth at 0.3 µM (K562 [2]) | growth at 0.03 µM (MDA-MB-231) | growth at 0.03 µM (OVCAR-8) | growth at 0.03 µM (M14) | growth at 0.03 µM (NCI-H23 [3]) | growth at 0.03 µM (HOP-62 [4]) | growth at 0.03 µM (MOLT-4) | growth at 0.03 µM (HL-60(TB)) | growth at 30 µM (RXF 393 [5]) | growth at 30 µM (OVCAR-5) | growth at 0.003 µM (RXF 393 [6]) | growth at 0.003 µM (OVCAR-3) | growth at 30 µM (OVCAR-4) | growth at 30 µM (SK-MEL-28) | growth at 30 µM (LOX IMVI) | growth at 30 µM (SNB-19) | growth at 30 µM (NCI-H23 [7]) | growth at 3 µM [8] | growth at 0.003 µM (UACC-62 [9]) | further results |
| --- | --- | --- | --- | --- | --- | --- | --- | --- | --- | --- | --- | --- | --- | --- | --- | --- | --- | --- | --- | --- | --- |
| COc1cc(-c2nn(-c3cccc(NC(=O)Nc4ccc(Cl)c(C(F)(F)F)c4)c3)cc2-c2ccncc2)ccc1Cl | 93% | 100% | 92% | 101% | 109% | 101% | 95% | 106% | 103% | -49% | -43% | 98% | 105% | -2% | -70% | -72% | -23% | -16% | 25% | 95% | growth at 0.003 µM (SF-539): 97%; growth at 0.003 µM (SF-268): 97%; growth at 0.003 µM (HCT-116): 102%; growth at 3 µM (786-0): 28%; growth at 3 µM (UACC-62 [10]): -21%; growth at 3 µM (K562 [11]): 12%; growth at 0.3 µM [12]: 89%; growth at 0.3 µM (MCF7): 87%; growth at 0.3 µM (UO-31): 85% |
| O=C(Nc1cccc(-n2cc(-c3ccncc3)c(-c3ccc(Cl)c(O)c3)n2)c1)Nc1cccc(C(F)(F)F)c1 | 105% | 101% | 101% | 106% | 98% | 94% | 98% | 96% | 94% | -37% | 22% | 96% | 96% | 16% | 3% | -50% | 20% | 6% | 50% | 98% | growth at 0.003 µM (SF-539): 100%; growth at 0.003 µM (SF-268): 95%; growth at 0.003 µM (HCT-116): 96%; growth at 3 µM (786-0): 58%; growth at 3 µM (UACC-62 [10]): 33%; growth at 3 µM (K562 [11]): 22%; growth at 0.3 µM [12]: 89%; growth at 0.3 µM (MCF7): 89%; growth at 0.3 µM (UO-31): 90% |
| O=C(Nc1cccc(-n2cc(-c3ccncc3)c(-c3ccc(Cl)c(O)c3)n2)c1)Nc1ccc(Cl)c(C(F)(F)F)c1 | 104% | 88% | 96% | 95% | 101% | 100% | 100% | 116% | 116% | -49% | -14% | 101% | 109% | 9% | -87% | -91% | -42% | -55% | 9% | 98% | growth at 0.003 µM (SF-539): 99%; growth at 0.003 µM (SF-268): 101%; growth at 0.003 µM (HCT-116): 105%; growth at 3 µM (786-0): 19%; growth at 3 µM (UACC-62 [10]): -48%; growth at 3 µM (K562 [11]): 3%; growth at 0.3 µM [12]: 76%; growth at 0.3 µM (MCF7): 71%; growth at 0.3 µM (UO-31): 82% |
